The values below come from patent US20140303188A1, “Substituted Cyclopenta Pyrimidine Bicyclic Compounds Having Antitmitotic And/Or Antitumor Activity And Methods Of Use Thereof” (DUQUESNE UNIVERSITY OF THE HOLY SPIRIT, priority 2008, published 2014).

Usually IC50 stands for the concentration that inhibits the measured activity by half. The term EC50 denotes the concentration that produces a half-maximal response. For orientation: melting point means the temperature, or range, at which the solid turns liquid.

Data set [1] has as its system SKOV3M6/6 (Pgp infected human ovarian cancer). Kind of data set: cytotoxicity towards Pgp infected ovarian cancer cell line. The settings on record: for IC50: Homo sapiens; for calculated relative resistance value: SKOV3M6/6 versus SKOV3, FIG. 4. Here is the method: (§1) Antimitotic compounds AAG1, AAG7, AAG12, AAG16, AAG20, and AAG26, Taxol®, and combrestastatinA4, were evaluated for cytotoxity towards the panel of human cell lines MDA MB 435 (human breast cancer), SKOV3 (human ovarian cancer), and SKOV3M6/6 (Pgp infected human ovarian cancer). […] The IC50 is the inhibitory concentration required to effectuate fifty percent inhibition of cell growth.

For data set [2], the system named is Wild type HeLa. Kind of data set: antiproliferative activity, isogenic HeLa pair, wild type. The class given is cell-based. The following applies: read-out: IC50 ± SD Wild type HeLa. From the text: (§2) One mechanism of drug resistance that can lead to chemotherapy failure with tubulin targeting agents is the expression of the βIII isotype of tubulin.
Data set [3] has as its system β-III Overexpressing HeLa. Kind of data set: antiproliferative activity, isogenic HeLa pair, βIII tubulin. Type of data set: cell-based. The following applies: for Rr: HeLa cell line pair, wild type and βIII tubulin; for IC50: read-out: IC50 ± SD β-III Overexpressing HeLa.
Source text: as §2

For data set [4], the system named is tubulin. Kind of data set: antitubulin activities. Type of data set: cell-based. The settings on record: for IC50: read-out: IC50 (antitubulin agent). From the text: Compounds 1, 2 are cyclopenta pyrimidine compounds. Their antitubulin activities are set forth above. […] The structural differences between Compounds 1 and 2 lead to several pharmacological ramifications. Among them, the conformation of aniline rings maybe a pivotal factor that results in the affinity difference. In order to validate this, we set forth a preferred representative series of N-methyl-N-methoxynaphthyl cyclopenta[d]pyrimidin-4-amine (4) based on the high potent antibulin agent 3 (IC50=7.0 nM). All these preferred representative methoxynaphthyl substituted bicyclic compounds of this invention have the same function groups and molecular weight, similar Log D.

The test system of data set [5] is MDA MB 435 human breast cancer. Kind of data set: flow cytometric analysis of cell cycle phase distribution. Type of data set: cell-based. The following applies: treatment for twenty four hours. For orientation: In flow cytometry, cells or beads pass a laser one at a time.
Data set [6] concerns MDA MB 435, SKOV3, SKOV3M6/6. Briefly: cytotoxicity towards panel of human cell lines. Here is the method:
as §1

The subject of data set [7] is MDA-MB-435 tumor cell line. Briefly: inhibition of proliferation, sulforhodamine B assay. The class given is cell-based. The settings on record: read-out: IC50 ± SD (MDA-MB-435) Tumor cells. Here is the method: (§3) However, the reverse orientation of methoxy and methylamino on the naphthyl, compound 11, has no microtubule depolymerization inhibitory activity up to 10 000 nM.

Data set [8] concerns A-10 cells. Kind of data set: cell-based phenotypic screen of microtubule disrupting effects. On the set-up: species or system rat. The following applies: read-out: EC50 in A-10 cells (Tubulin depolymerization inhibitory acitivity). The method, then:
as §3

Data set [9] deals with A-10 rat smooth muscle cell line. Briefly: microtubule depolymerization immunofluorescence assay. Type of data set: cell-based. The following applies: 24 h; 250 nM AAG1, 500 nM AAG7, 40 nM AAG16. Here is the method: A-10 rat smooth muscle cells were used since they grow as flat monolayers that are amenable to imaging. The A-10 cells were treated for twenty four (24) hours (h) with EtOH (control), 250 nM (nanomolar) AAG1, 500 nM AAG7, or 40 nM AAG16, respectively. Microtubules were then visualized by indirect immunofluorescence staining with beta-tubulin antibodies. […] Each of the compounds AAG1, AAG7, and AAG16 has potent nanomolar tubulin inhibitory activity. Compounds of the present invention having the structural Formulas III and IV, as set forth herein, inhibit the microtubule dynamics. The inhibition of microtubule dynamics hinders microtubule formation and results in mitotic arrest and initiation of apoptosis or programmed cell death.

Data set [10] relates to purified tubulin. Briefly: inhibition of tubulin assembly. Type of data set: biochemical. The following applies: read-out: Inhibition of tubulin assembly IC50 ± SD. The method, then: The effects of designed compounds 10-14 on the polymerization of purified tubulin were evaluated. This allows for the study of the direct interaction of the compounds with their intracellular target. The ability of these compounds to bind to the colchicine site on tubulin was evaluated by measuring inhibition of [^3H]colchicine binding to tubulin. […] It is therefore likely that 13 binds in the colchicine site.

For data set [11], the system named is colchicine site on tubulin. Kind of data set: inhibition of [3H]colchicine binding to tubulin. The following applies: 1 μM inhibitor. The method, then:
This allows for the study of the direct interaction of the compounds with their intracellular target. The ability of these compounds to bind to the colchicine site on tubulin was evaluated by measuring inhibition of [^3H]colchicine binding to tubulin.

Data set [12] relates to NCI 55 human tumor lines. Briefly: NCI 55 human tumor lines in vitro screen. The class given is cell-based. The settings on record: all 55 tumor cell lines. The text has this:
FIGS. 5a and 5b show the results of testing compound AAG1 of the present invention using National cancer Institute (NCl) 55 human tumor lines. The cells lines, which represent leukemia, non-small cell lung cancer, colon cancer, central nervous system cancer, melanoma, ovarian cancer, renal cancer, prostate cancer, and breast cancer, are listed in FIG. 5. Testing was in accordance with the NCI Developmental Therapeutics Program (DTP) In Vitro Cell Line Screening Project (IVCLSP). Methodology for testing under IVCLSP is provided at http://dtp.nci.gov/branches/btb/ivclsp.html.
GI50 is the concentration of chemical required to reduce the growth of treated cells to half that of untreated cells (i.e. control). GI50 represents the concentration of chemical required to effectuate fifty percent inhibition of cell growth.

Where [13] appears, read: Homo sapiens, MDA-MB-435, MDA-MB-435.

Where a name gives a salt, the structure may show the parent alone. Read-outs that look alike come from different tables or passages of the source.

`CC(=O)O[C@H]1C(=O)[C@@]2(C)[C@H]([C@H](OC(=O)c3ccccc3)[C@]3(O)C[C@H](OC(=O)[C@H](O)[C@@H](NC(=O)c4ccccc4)c4ccccc4)C(C)=C1C3(C)C)[C@]1(OC(C)=O)CO[C@@H]1C[C@@H]2O` [Paclitaxel, paclitaxel, reference compound]: the IC50 was 4400 nM in data set [1]; 5.3 ± 2 nM in data set [2] (Homo sapiens, HeLa); 16 ± 1 nM in data set [3] (Homo sapiens, HeLa). For the same molecule, in data set [1], the “calculated relative resistance value” is listed as 2013. Besides, the Rr in data set [3] came out at 0.33.

On to `CC(=O)O[C@@]12CO[C@@H]1C[C@H](O)[C@@]1(C)C(=O)[C@H](O)C3=C(C)[C@@H](OC(=O)[C@H](O)[C@@H](NC(=O)OC(C)(C)C)c4ccccc4)C[C@@](O)([C@@H](OC(=O)c4ccccc4)[C@H]21)C3(C)C` [Docetaxel, docetaxel, reference compound], for which the IC50 is 4 ± 2 nM in data set [2] (Homo sapiens, HeLa) and 13 ± 4 nM in data set [3] (Homo sapiens, HeLa). Besides, the Rr in data set [3] came out at 0.31.

As for `COc1ccc(Nc2nc(C)nc3c2CC(C)C3)cc1` (centres unmarked) [Compound 1], the “antitubulin activity in words” value in data set [4] was “almost inactive”.

For “N-(4-methoxy-phenyl)-6-methyl-5H-pyrrolo[3,2-d]pyrimidine-2,4-diamine [AAG12]”, the “percentage of cells in the G2/M phases” value in [5] is given as “increased approximately two-fold”. The “cytotoxic activity toward each of the human cancer cell lines tested” value (“cytotoxic activity toward each” for short) in [6] is “have cytotoxic activity”.

As for `COc1ccc(N(C)c2nc(C)nc3c2CCC3)c2ccccc12` [Compound 14], the half-maximal inhibitory concentration (IC50) in data set [7] (setting [13]) was determined as 234 ± 20 nM; in data set [2] (Homo sapiens, HeLa) it was 85 ± 5 nM; in [3] (Homo sapiens, HeLa), 180 ± 40 nM. In data set [8] (Rattus norvegicus, A10), the EC50 was found to be 500 ± 2.1 nM. The molecule also had a Rr in data set [3] of 0.47.

Regarding `COc1ccc(N(C)c2nc(N)nc3c2CC(C)C3)cc1` (centres unmarked) [AAG7, N^4-(4-Methoxyphenyl)-N^4,6-dimethyl-6,7-dihydro-5H-cyclopenta[d]pyrimidine-2,4-diamine], in [9], the “effect on microtubules (immunofluorescence, beta-tubulin antibodies)” value (from here on “effect on microtubules”) was “caused losses of microtubules”. Besides, the “cytotoxic activity toward each” value in data set [6] (MDA MB 435, SKOV3, SKOV3M6/6) was “have cytotoxic activity”.

On to `COc1ccc(/C=C\c2cc(OC)c(OC)c(OC)c2)cc1O` [CA4, combretastatin A-4, reference compound], for which the IC50 in data set [7] (MDA-MB-435) amounted to 3.4 ± 0.6 nM; in [10] it was […]; in [2] it was 1.8 ± 0.4 nM; in data set [3], 2.5 ± 0.7 nM. For the same molecule, in [8] (A-10 cells), the EC50 was found to be 13 nM. In addition, in data set [11], the “Inhibition of colchicine binding % Inhibition ± SD” value came to 90 ± 0.2%. Also, in data set [3], the Rr was determined as 0.72.

For the molecule `COc1ccc2c(N(C)c3nc(C)nc4c3CCC4)cccc2c1` [Compound 11, N,2-dimethyl-N-(6′-methoxynaphthyl-1′-amino)-cyclopenta[d]pyrimidin-4-amine], the concentration for a half-maximal effect (EC50) in [8] (Rattus norvegicus, A10) is more than 10000 nM. The IC50 in [2] (Homo sapiens, HeLa) was more than 10000 nM; in data set [3] (Homo sapiens, HeLa), more than 10000 nM.

As to `COc1ccc2c(N(C)c3ncnc4c3CCC4)cccc2c1` [Compound 10], in [8] (Rattus norvegicus, A10), the EC50 is more than 10000 nM.

Turning to `COc1ccc(N(C)c2ncnc3occ(C)c23)cc1` [AAG16, N-(4-methoxyphenyl)-N,5-dimethylfuro[2,3-d]pyrimidin-4-amine], the “percentage of cells in the G2/M phases” value in [5] is “increased approximately two-fold”. In addition, the “effect on microtubules” value in data set [9] is reported as “caused losses of microtubules”. The IC50 in [1] is 8.4 nM. For the same molecule, in data set [6] (MDA MB 435, SKOV3, SKOV3M6/6), the “cytotoxic activity toward each” value was “have cytotoxic activity”.

Turning to `COc1cccc2cc(N(C)c3ncnc4c3CCC4)ccc12` [Compound 12], the IC50 in [7] (setting [13]) worked out at 33.7 ± 3.4 nM; in data set [2] (Homo sapiens, HeLa) it was 15 nM; in data set [3] (Homo sapiens, HeLa), 14 ± 1 nM. The molecule also gave a Rr in [3] of 1.07.

`COc1ccc(N(C)c2nc(C)nc3c2CC(C)C3)cc1` (centres unmarked) (as salt: chloride) [AAG26, N-(4-Methoxyphenyl)-N,2,6-trimethyl-6,7-dihydro-5H-cyclopenta[d]pyrimidin-4-aminium chloride] gave a melting point of 196 to 198 °C.

On to `COc1ccc(N(C)c2nc(C)nc3oc(C)cc23)cc1` [AAG1, N-(4-methoxyphenyl)-N,2,6-trimethylfuro[2,3-d]pyrimidin-4-amine], for which the “percentage of cells in the G2/M phases” value in data set [5] is recorded as “increased approximately two-fold”. For the same molecule, the “effect on microtubules” value in [9] is on record as “caused losses of microtubules”. Moreover, in data set [1], inhibition was half-maximal at 171 nM (IC50) and the “calculated relative resistance value” is recorded as 4.7. Moreover, the “cytotoxic activity toward each” value in [6] (MDA MB 435, SKOV3, SKOV3M6/6) is recorded as “have cytotoxic activity”. The GI50 result in [12] was “single digit 10^−8 molar levels”.

Consider `COc1ccc(N(C)c2nc(C)nc3[nH]ccc23)cc1` [AAG20, N-(4-methoxyphenyl)-N,2-dimethyl-7H-pyrrolo[2,3-d]pyrimidin-4-amine], for which, in [5], the “percentage of cells in the G2/M phases” value is “increased approximately two-fold”. In [6] (MDA MB 435, SKOV3, SKOV3M6/6), the “cytotoxic activity toward each” value was “have cytotoxic activity”.

Take `COc1ccc(N(C)c2nc(C)nc3c2CCC3)cc1` [Compound 3]: the IC50 in data set [4] was 7 nM; in data set [7] (setting [13]), 7 ± 0.7 nM.

For `COc1ccc(N(C)c2nc(C)nc3c2CC(C)C3)cc1` (centres unmarked) [AAG26, N-(4-Methoxyphenyl)-N,2,6-trimethyl-6,7-dihydro-5H-cyclopenta[d]pyrimidin-4-aminium chloride], the IC50 in data set [1] was 3.2 nM. Moreover, in [6] (MDA MB 435, SKOV3, SKOV3M6/6), the “cytotoxic activity toward each” value was “have cytotoxic activity”.

With `COc1cccc2cc(N(C)c3nc(C)nc4c3CCC4)ccc12` [Compound 13, N,2-dimethyl-N-(5′-methoxynaphthyl-2′-amino)-cyclopenta[d]pyrimidin-4-amine], the IC50 in data set [7] (setting [13]) came out at 10 nM; in [7] (MDA-MB-435), 10.2 ± 0.46 nM; in data set [2] (Homo sapiens, HeLa), 4 ± 1 nM; in [3] (Homo sapiens, HeLa), 4 ± 1 nM. This molecule had a Rr in [3] of 1.0.

For `COc1ccc(N(C)c2nc(C)nc3c2CC(C)C3)cc1` (centres unmarked) [Compound 2], in data set [4], the IC50 came to 25.7 nM.
